Results as given in patent US20070037253A1, “Methods and compositions for treatment of arthritis and cancer” (priority 2003, published 2007).
Entries after “also recorded” stand apart in the source; their conditions may differ. Where a SMILES comes first, the peptide text is derived from it.

What was measured:
MMP-2 = molecular target: T1, MMP-2 (Oryctolagus cuniculus, UniProt P50757); test: Gelatin zymography of HIG-82 culture supernatant pre-incubated with inhibitors (FIG. 4A); type: biochemical, rabbit; conditions: APMA-activated HIG-82 supernatant, 5 μM peptide, 1 h at 25° C.
T1 construct: endogenous in cells; host or cells: HIG-82 rabbit synoviocytes (ATCC CRL-1832), IL-1β-induced, culture supernatant
T1 sequence (P50757 110-662): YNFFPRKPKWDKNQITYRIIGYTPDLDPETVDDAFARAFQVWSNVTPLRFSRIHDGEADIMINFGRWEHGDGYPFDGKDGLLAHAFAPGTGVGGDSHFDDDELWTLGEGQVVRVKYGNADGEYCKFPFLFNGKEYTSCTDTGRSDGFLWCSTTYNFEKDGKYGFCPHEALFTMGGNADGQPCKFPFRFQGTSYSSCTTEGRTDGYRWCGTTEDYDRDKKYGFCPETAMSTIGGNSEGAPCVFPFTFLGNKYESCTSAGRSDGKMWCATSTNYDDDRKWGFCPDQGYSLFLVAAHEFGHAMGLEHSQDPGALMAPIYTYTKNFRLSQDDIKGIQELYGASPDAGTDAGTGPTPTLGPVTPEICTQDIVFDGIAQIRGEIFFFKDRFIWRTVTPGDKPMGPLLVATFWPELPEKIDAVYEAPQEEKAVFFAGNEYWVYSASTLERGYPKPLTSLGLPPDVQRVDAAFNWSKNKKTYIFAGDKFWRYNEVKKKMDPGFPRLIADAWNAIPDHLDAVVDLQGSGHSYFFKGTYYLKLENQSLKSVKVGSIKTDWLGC
Experimental: (§1) Gelatinase activity in the supernatants from cells induced with IL-1β (5 ng) for 48 h was analyzed by gelatin zymography. (A) Supernatants (activated with final 1 mM APMA at 30° C. for 30 min) were pre-incubated with various inhibitors. (5 μM peptides or 1-2 μM Calbiochem MMP inhibitor II) for 1 h at 25° C. prior to zymographic analyses—Lane 1, without activation (no inhibitor); Lane 2, with activation (no inhibitor); Lanes 3-8, with activation plus inhibitor: 3, P-NT-II; 4, PIP [59-67] monomer; 5, PIP [57-67] dimer; 6, PIP [59-67] dimer; 7 and 8, positive control MMP Inhibitor II (Calbiochem) at 1 and 2 μM concentrations. (B) Rabbit synovial fibroblasts were stimulated by IL-1β in the presence or absence of 1-10 μM of PIP [59-67] dimer for 48 h. Culture supernatants were concentrated by centrifugation (Centricon centrifugal filter devices, M.W. cutoff 30,000) and activated with APMA (1 mM final) before measurement of gelatinase activity by gelatin zymography. Lanes: 1 (−peptide−APMA); 2 (−peptide+APMA); 3 (+1 μM peptide+APMA); 4 (+5 μM peptide+APMA); 5 (+7.5 μM peptide+APMA); 6 (+10 μM peptide+APMA). […]

MMP-9 = molecular target: T2, MMP-9 (Oryctolagus cuniculus, UniProt P41246); test: as above; type: biochemical, rabbit; conditions: APMA-activated HIG-82 supernatant, 5 μM peptide, 1 h at 25° C.
T2 construct: endogenous in cells; host or cells: HIG-82 rabbit synoviocytes (ATCC CRL-1832), IL-1β-induced, culture supernatant
T2 sequence (P41246 107-707): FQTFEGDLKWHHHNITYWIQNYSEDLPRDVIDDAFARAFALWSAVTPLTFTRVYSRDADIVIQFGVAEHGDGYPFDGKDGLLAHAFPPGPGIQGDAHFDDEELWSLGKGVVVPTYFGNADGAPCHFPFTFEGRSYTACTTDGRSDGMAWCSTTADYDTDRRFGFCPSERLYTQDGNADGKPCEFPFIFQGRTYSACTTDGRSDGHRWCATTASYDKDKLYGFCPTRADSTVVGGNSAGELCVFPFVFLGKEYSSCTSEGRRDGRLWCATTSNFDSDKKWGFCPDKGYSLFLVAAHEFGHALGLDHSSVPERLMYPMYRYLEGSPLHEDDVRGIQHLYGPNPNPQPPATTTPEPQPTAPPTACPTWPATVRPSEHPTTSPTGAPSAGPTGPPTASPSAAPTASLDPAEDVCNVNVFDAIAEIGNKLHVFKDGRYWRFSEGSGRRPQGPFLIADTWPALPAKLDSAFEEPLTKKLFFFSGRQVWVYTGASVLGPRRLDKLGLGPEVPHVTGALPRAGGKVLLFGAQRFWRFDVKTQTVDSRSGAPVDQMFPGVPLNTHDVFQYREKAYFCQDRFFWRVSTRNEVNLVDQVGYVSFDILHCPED
Experimental: as §1

MMP-9 gene transcript = test: QRT-PCR relative mRNA expression in IL-1β-stimulated rabbit synovial fibroblasts; type: cell-based
Text: (§2) FIG. 5 is a view of the effect of peptide on the relative expression of MMP and sPLA2 genes. QRT-PCR was used for assessing relative mRNA expression levels of IL-1β-stimulated rabbit synovial fibroblast cells in the presence and absence of the candidate lead peptide PIP [59-67] dimer. The amount of each mRNA was obtained by quantitative RT-PCR. The relative levels of gene expression were normalized to the housekeeping gene (GAPDH). […] Values are expressed as ±S.E.
(§3) RNA isolation of cultured FLSCs: FLSCs were grown to 80% confluence on 12-well culture dishes and starved in a serum-free medium with 5 μM PIP [59-67] dimer for 2 h. The cells were then stimulated with 5 ng/mL IL-1β (Recombinant human, Chemicon, USA.) for 24 h, washed with cold PBS and total RNA isolated from peptide-treated (n=3) and untreated (n=3) FLSCs using RNeasy® mini kit. The RNA samples were subsequently treated with RNase-free Dnase-I at room temperature for 20 min and stored at −80° C. until use. The quality and quantity of extracted RNA was determined by spectrophotometry (Bio-Rad, USA). All RNA samples used for QRT-PCR experiments were of highest purity with A260/A280 ratios of 1.9-2.1. The integrity and relative contamination with residual genomic DNA was assessed by 1% denaturing agarose gel electrophoresis.
(§4) Quantitative Real Time RT-PCR (LightCycler): Quantitative fluorescence-based real-time PCR was carried out according to the manufacturer's instructions using the LightCycler system with LightCycler FastStart DNA Master^PLUS SYBR Green I kit (Roche Diagnostics, Germany) as an independent method for assessing relative gene expression. Reverse Transcription (RT) of RNA and QRT-PCR were performed as follows: single stranded cDNA was generated from 3 μg of total RNA, 200 μM nucleotides, 500 units Superscript II reverse transcriptase (Invitrogen) and 1.5 μM oligo(dT)15 primers in 50 μL reactions. Reverse transcription was stopped after 1 hr by heating to 95° C. for 5 min. The primers were designed by Primer3 software: http://bioinformatics.weizmann.ac.il/cgi-bin/primer/primer3.cgi and subsequently checked for specificity using BLAST: http://www.ncbi.nlm.nih.gov/genome/seq/HsBlast.htmL. All primers and probes were synthesized by 1st BASE Pvt. Ltd., Singapore. The expression of GAPDH was used as an internal calibrator for equal RNA loading and to normalize relative expression data for all other genes analyzed. The copy ratio of each analyzed cDNA was determined as the mean of 3 experiments. The real-time quantitative RT-PCR data were quantified using relative quantification (2^−ΔΔCT) method as described [Livak, K. J, and Schmittgen, T. D. (2001) Analysis of relative gene expression data using real-time quantitative PCR and the 2(-Delta Delta C(T)) method.

TIMP-1 gene transcript = test: as above; type: cell-based; conditions: 5 μM peptide, IL-1β-induced
Text: as §2, §3, §4

sPLA2 gene transcript = test: as above; type: cell-based
Text: as §2, §3, §4

[1] = 5 μM peptide, IL-1β-induced, normalized to GAPDH
[2] = IL-1β-stimulated rabbit synovial fibroblasts in culture

CC[C@H](C)[C@H](NC(=O)[C@H](CC(=O)O)NC(=O)[C@@H](N)C(C)C)C(=O)N[C@@H](Cc1c[nH]cn1)C(=O)N[C@H](C(=O)N[C@@H](Cc1c[nH]c2ccccc12)C(=O)N[C@@H](CC(=O)O)C(=O)NCC(=O)N[C@H](C(=O)N[C@H](C(=O)N[C@@H](CC(=O)O)C(=O)N[C@H](C(=O)N[C@@H](Cc1c[nH]cn1)C(=O)N[C@H](C(=O)N[C@@H](Cc1c[nH]c2ccccc12)C(=O)N[C@@H](CC(=O)O)C(=O)NCC(=O)N[C@H](C(=O)O)C(C)C)C(C)C)[C@@H](C)CC)C(C)C)C(C)C)C(C)C [PIP [59-67] dimer] (H-VDIHVWDGVVDIHVWDGV-OH; N-terminus and C-terminus assumed)
MMP-2 gelatinase activity vs control (MMP-2): insignificant
MMP-9 gelatinase activity vs control (MMP-9): insignificant
MMP-9 mRNA expression level (MMP-9 gene transcript; [1]): significantly inhibited; also recorded: significantly suppressed
decrease of MMP-9 mRNA expression (MMP-9 gene transcript; [2]): > 1 fold
TIMP-1 mRNA expression level (TIMP-1 gene transcript): significantly suppressed
sPLA2 mRNA expression level (sPLA2 gene transcript; [1]): significantly inhibited; also recorded: significantly suppressed
decrease of sPLA2 mRNA expression (sPLA2 gene transcript; [2]): > 1 fold
